For assay [1], the system named is Romaine lettuce (Lactuca sativa L.) plants. Description: Post-emergency herbicidal activity on Romaine lettuce plants. Conditions: Romaine lettuce at stage 2 to 3 leaves; compound in 0.1% Silwet, up to 0.5%; visual evaluation vs control plants. Type of assay: in vivo. As to the method: The tests were performed on Romaine lettuce (Lactuca sativa L.) plants at the stage 2 to 3 leaves. The plants were grown on 300 well trays packed with soil, well dimensions 2×2×5 cm. Each compound was dissolved in 0.1% water solution of agronomically acceptable surfactant Silwet to final concentrations ranging from 0.0% (Control) to 0.5%. Two weeks after the treatment the herbicidal effects of the respective test material were visually evaluated by a comparison with the control plants. In addition, the aboveground part of the plant was neatly cut and weighed (wet weight). Each test was performed on 20 to 40 plants. The degree of growth inhibition and damage was evaluated according to the parameters in Table 2. Plant development at 7, 14, and 21 DAA (days after application) were evaluated on a scale of 0 to 100, in which score 0 represents dead plants and score 100 represents healthy plants according to plant vigor, height, and leaf color. Each test included 20 to 40 plants.

Assay [2] deals with Seeds of Lettuce R. (Super-Jericho). Briefly: Filter paper bioassay with lettuce seeds (germination and early plant development). Particulars: lettuce seeds on filter paper; 1, 0.1, 0.01, 0.001 mM; radicle and shoots assessed after 6 days. Type of assay: in vivo. The method, then: Seeds of Lettuce R. (Super-Jericho, non-sterilized) were obtained from Ben Shahar Moshe Ltd., 99% purity.
Filter Paper Bioassays with Lettuce Seeds:
The protocol is following Bertin et al. 2009 and Movellan et al. 2014 with specified modifications as described below.
Seeds were placed on Whatman no. 1 filter paper (Whatman, Middlesex, U.K.) in Petri dishes (10 seeds per plate) supplemented with 2.0 ml of water (Control) or with a solution comprising 1 mM, 0.1 mM, 0.01 mM and 0.001 mM of test material. Petri dishes with seeds were placed in a tray at an angle of 45°. The trays were kept in dark for 48 hours and then transferred to the growth chamber (22° C., 0.045 mmol×m−2×s−1 photosynthetic photon flux density; 6/18 dark/light cycle) for additional 4 days. Each experiment was performed at least in two repeats. The development of radicle and shoots of experimental and control plants were visually assessed 6 days after the beginning of the test to determine Minimal Effective Concentration (MEC) of test material. In the context of the invention, MEC is defined as the lowest concentration level of a test material that caused deviation (absence of germination or malformation of radicle and shoots) from the plant's development in the Control group.

`NC(CC(=O)O)c1cscc1Br` (centres unmarked) [Code 511]: the “post-emergency herbicidal activity (Activity Index: plant's development vs Control)” value in assay [1] is recorded as “Weak (More than 75)”. For the same compound, in assay [2], the “Minimal Effective Concentration (MEC) as activity score, seeds germination & early plants development” value (shortened to “Minimal Effective Concentration (MEC)”) was “Weak (More than 1 mM)”.
For the compound `Cc1sc(C)c(CC(N)C(=O)O)c1C` (centres unmarked) [Code 512], the “post-emergency herbicidal activity (Activity Index: plant's development vs Control)” value in assay [1] was “Weak (More than 75)”. In assay [2], the “Minimal Effective Concentration (MEC)” value was “Weak (More than 1 mM)”.
Take `CCCCOC(=O)C(N)Cc1ccsc1` (centres unmarked) [Code 513]: the “post-emergency herbicidal activity (Activity Index: plant's development vs Control)” value in assay [1] was “Very Strong (From 15 to 25)”. In assay [2], the “Minimal Effective Concentration (MEC)” value is “Strong (0.1 mM)”.
Consider `NC(CNS(=O)(=O)c1cc(Cl)sc1Cl)C(=O)O` (centres unmarked) [Code 514], for which, in assay [1], the “post-emergency herbicidal activity (Activity Index: plant's development vs Control)” value is “Weak (More than 75)”. Moreover, the “Minimal Effective Concentration (MEC)” value in assay [2] was “Weak (More than 1 mM)”.
On the same counts, the results for `Cc1c(Cl)sc(Cl)c1S(=O)(=O)NCC(N)C(=O)O` (centres unmarked) [Code 515] are “Weak (More than 75)” and “Weak (More than 1 mM)”.
`NC(Cc1ccsc1Cl)C(=O)O` (centres unmarked) [Code 516]: the “post-emergency herbicidal activity (Activity Index: plant's development vs Control)” value in assay [1] is “Maximal (Less than 15)”. Further, the “Minimal Effective Concentration (MEC)” value in assay [2] was “Maximal (0.01 mM and less)”.
For the compound `NC(CC1=NCSC1)C(=O)O` (centres unmarked) [Code 519], in assay [1], the “post-emergency herbicidal activity (Activity Index: plant's development vs Control)” value is reported as “Moderate (From 50 to 75)”. Besides, in assay [2], the “Minimal Effective Concentration (MEC)” value is “Maximal (0.01 mM and less)”.
Take `NC(Cc1cncs1)C(=O)O` (centres unmarked) [Code 520]: in assay [1], the “post-emergency herbicidal activity (Activity Index: plant's development vs Control)” value is on record as “Weak (More than 75)”. The “Minimal Effective Concentration (MEC)” value in assay [2] is on record as “Strong (0.1 mM)”.
For the compound `NC(CNS(=O)(=O)c1c(Cl)sc(Cl)c1C(F)(F)F)C(=O)O` (centres unmarked) [Code 521], in assay [1], the “post-emergency herbicidal activity (Activity Index: plant's development vs Control)” value is given as “Weak (More than 75)”. In addition, the “Minimal Effective Concentration (MEC)” value in assay [2] is “Weak (More than 1 mM)”.
Regarding `Nc1nc(CC(N)C(=O)O)cs1` (centres unmarked) [Code 522], in assay [1], the “post-emergency herbicidal activity (Activity Index: plant's development vs Control)” value is recorded as “Weak (More than 75)”. Besides, in assay [2], the “Minimal Effective Concentration (MEC)” value was “Weak (More than 1 mM)”.
For the compound `COC(=O)C(N)CNS(=O)(=O)c1cc(Cl)sc1Cl` (centres unmarked) [Code 523], in assay [1], the “post-emergency herbicidal activity (Activity Index: plant's development vs Control)” value was “Weak (More than 75)”. Further, the “Minimal Effective Concentration (MEC)” value in assay [2] was “Weak (More than 1 mM)”.
In the case of `CCOC(=O)C(N)CNS(=O)(=O)c1cc(Cl)sc1Cl` (centres unmarked) [Code 524], in assay [1], the “post-emergency herbicidal activity (Activity Index: plant's development vs Control)” value is reported as “Weak (More than 75)”. The “Minimal Effective Concentration (MEC)” value in assay [2] is “Weak (More than 1 mM)”.
The like results for `CCCOCCOC(=O)C(N)CNS(=O)(=O)c1cc(Cl)sc1Cl` (centres unmarked) [Code 525] were, in that order, “Weak (More than 75)” and “Weak (More than 1 mM)”.
Turning to `CCOC(=O)C(CN(C(=O)O)S(=O)(=O)c1cc(Cl)sc1Cl)NC(=O)O` (centres unmarked) [Code 526], the “post-emergency herbicidal activity (Activity Index: plant's development vs Control)” value in assay [1] is reported as “Weak (More than 75)”. Moreover, the “Minimal Effective Concentration (MEC)” value in assay [2] is “Weak (More than 1 mM)”.
Regarding `NC(Cc1nc(Cl)sc1Cl)C(=O)O` (centres unmarked) [Code 527], the “post-emergency herbicidal activity (Activity Index: plant's development vs Control)” value in assay [1] is recorded as “Maximal (Less than 15)”. In assay [2], the “Minimal Effective Concentration (MEC)” value was “Moderate (1 mM)”.
Turning to `NC(Cc1ncsc1Cl)C(=O)O` (centres unmarked) [Code 528], the “post-emergency herbicidal activity (Activity Index: plant's development vs Control)” value in assay [1] is listed as “Weak (More than 75)”. The “Minimal Effective Concentration (MEC)” value in assay [2] was “Moderate (1 mM)”.
Regarding `NC(Cc1cnsn1)C(=O)O` (centres unmarked) [Code 529], the “post-emergency herbicidal activity (Activity Index: plant's development vs Control)” value in assay [1] is “Moderate (From 50 to 75)”. Also, in assay [2], the “Minimal Effective Concentration (MEC)” value is listed as “Strong (0.1 mM)”.
As to `NC(Cc1ncns1)C(=O)O` (centres unmarked) [Code 532], the “post-emergency herbicidal activity (Activity Index: plant's development vs Control)” value in assay [1] is “Moderate (From 50 to 75)”. Besides, in assay [2], the “Minimal Effective Concentration (MEC)” value is “Strong (0.1 mM)”.
`NC(Cc1ccoc1)C(=O)O` (centres unmarked) [Code 534]: the “post-emergency herbicidal activity (Activity Index: plant's development vs Control)” value in assay [1] is “Strong (From 25 to 50)”. For the same compound, the “Minimal Effective Concentration (MEC)” value in assay [2] is “Moderate (1 mM)”.
The like results for `NC(Cc1cocn1)C(=O)O` (centres unmarked) [Code 542] were, in that order, “Weak (More than 75)” and “Weak (More than 1 mM)”.
For the compound `O=CNC(Cc1ccsc1)C(=O)O` (centres unmarked) [Code 545], the “post-emergency herbicidal activity (Activity Index: plant's development vs Control)” value in assay [1] was “Weak (More than 75)”. Also, the “Minimal Effective Concentration (MEC)” value in assay [2] is listed as “Weak (More than 1 mM)”.
Regarding `COC(=O)C(N)Cc1ccsc1` (centres unmarked) [Code 546], the “post-emergency herbicidal activity (Activity Index: plant's development vs Control)” value in assay [1] is reported as “Very Strong (From 15 to 25)”. Besides, in assay [2], the “Minimal Effective Concentration (MEC)” value was “Maximal (0.01 mM and less)”.
As to `CCOC(=O)C(N)Cc1ccsc1` (centres unmarked) [Code 547], the “post-emergency herbicidal activity (Activity Index: plant's development vs Control)” value in assay [1] is “Very Strong (From 15 to 25)”. For the same compound, the “Minimal Effective Concentration (MEC)” value in assay [2] was “Maximal (0.01 mM and less)”.
With `NC(Cc1ccsc1)C(=O)NCCOCCO` (centres unmarked) [Code 549], the “post-emergency herbicidal activity (Activity Index: plant's development vs Control)” value in assay [1] was “Weak (More than 75)”. For the same compound, the “Minimal Effective Concentration (MEC)” value in assay [2] was “Weak (More than 1 mM)”.
On the same counts, the results for `NC(Cc1cc(Br)sc1Br)C(=O)O` (centres unmarked) [Code 552] are “Maximal (Less than 15)” and “Moderate (1 mM)”.
In the case of `NC(Cc1csc([N+](=O)[O-])c1)C(=O)O` (centres unmarked) [Code 553], in assay [1], the “post-emergency herbicidal activity (Activity Index: plant's development vs Control)” value was “Weak (More than 75)”. The “Minimal Effective Concentration (MEC)” value in assay [2] is “Weak (More than 1 mM)”.
As to `CCOCCOC(=O)C(Cc1nc(Cl)sc1Cl)NC(C)=O` (centres unmarked) [Code 555], the “post-emergency herbicidal activity (Activity Index: plant's development vs Control)” value in assay [1] was “Maximal (Less than 15)”. In addition, the “Minimal Effective Concentration (MEC)” value in assay [2] is recorded as “Strong (0.1 mM)”.
Consider `NC(Cc1csc(C(F)(F)F)c1)C(=O)O` (centres unmarked) [Code 556], for which the “post-emergency herbicidal activity (Activity Index: plant's development vs Control)” value in assay [1] is recorded as “Maximal (Less than 15)”. The “Minimal Effective Concentration (MEC)” value in assay [2] is reported as “Strong (0.1 mM)”.
As to `N[C@@H](Cn1oc(=O)[nH]c1=O)C(=O)O` [Code 557], the “post-emergency herbicidal activity (Activity Index: plant's development vs Control)” value in assay [1] is “Weak (More than 75)”. In addition, the “Minimal Effective Concentration (MEC)” value in assay [2] is “Weak (More than 1 mM)”.
As to `NC(CNS(=O)(=O)c1cc(Br)sc1Br)C(=O)O` (centres unmarked) [Code 558], in assay [1], the “post-emergency herbicidal activity (Activity Index: plant's development vs Control)” value is listed as “Very Strong (From 15 to 25)”. The “Minimal Effective Concentration (MEC)” value in assay [2] is “Maximal (0.01 mM and less)”.
Take `NC(CC1CCS(=O)(=O)C1)C(=O)O` (centres unmarked) [Code 561]: the “post-emergency herbicidal activity (Activity Index: plant's development vs Control)” value in assay [1] was “Weak (More than 75)”. The “Minimal Effective Concentration (MEC)” value in assay [2] was “Weak (More than 1 mM)”.

Source of the values: US20220232831A1, “NOVEL NON-CODING HETEROCYCLIC AMINO ACIDS (NCHAA) AND THEIR USE AS HERBICIDES” (Fortephest Ltd., priority 2019, published 2022).
